Source: US20260265694A1, “USE OF A VITISIN COMPOUND FOR THE PRODUCTION OF HEMATOPOIETIC CELLS” (ETABLISSEMENT FRANCAIS DU SANG, priority 2022, published 2026)

What was measured:
Format in all cases: cell-based, human
[1] = test system: peripheral blood CD34+ cells; experiment: ERYTHRO 1 PROTOCOL: simplified two-phase erythrocyte differentiation; details: versus CTRL, FIG. 3
Description: b. ERYTHRO 1 PROTOCOL: Simplified Ex Vivo Erythrocyte Differentiation Protocol (in Two Phases) This protocol was applied to CD34^+ cells from peripheral and placental blood, pre-stimulated SP cells, CMP cells and MEP cells. For this culture, the cell populations of interest are isolated as indicated previously and cultured in IMDM culture medium supplemented as follows: • 15% BIT 9500 (Stem Cell Technologies). […] The various cell populations were seeded in 24-well plates at 200 000 cells/mL for CD34^+, CMPs and MEPs. All of the cells recovered after the “Amplification/pre-stimulation” step for SP cells (i.e. 5000-50 000 cells) were cultured in 24-well plates. This culture includes two phases: • Phase 1: D0 to D6, EPO-free culture • Phase 2: from D6, addition of 2 IU/ML EPO and extension of culturing up to D21 minimum and D28 maximum.
In order to test the effect of vitisin B in this context, the culturing is performed in the absence and presence of vitisin B: • CTRL condition: Absence of vitisin B throughout the entire protocol. • Test condition: Presence of vitisin B at 5, 10, 15, 20 or 30 μM for the entire duration of the protocol (phase 1+phase 2). During the culture protocol, the differentiation product is analyzed by quantifying proliferation (counting) and analyzing erythrocyte differentiation markers by means of flow cytometry, using the markers CD71 and CD235a. c. ERYTHRO 2 PROTOCOL: Three-Phase Erythrocyte Differentiation Protocol
During and at the end of the various erythrocyte differentiation protocols, cell proliferation and cell differentiation are analyzed. Cell proliferation is evaluated by counting of cells on Malassez slides, with Trypan blue exclusion of dead cells. The different populations and culture conditions are also analyzed by flow cytometry, so as to observe the appearance of erythrocyte differentiation markers and thus cell differentiation kinetics. […] After resuspension of the cell pellets in PBS, the cells are analyzed by flow cytometry (FACSCantoll, Becton Dickinson, San Jose, CA). […]

[2] = test system: placental blood CD34+ cells; experiment: ERYTHRO 2 PROTOCOL: three-phase erythrocyte differentiation
Text: (§1) This protocol was applied to CD34^+ cells. Phase 1 of this protocol was in particular applied to BFU-E cells. This protocol was adapted from Vlaski et al. (Experimental Hematology 2009; 37:573-584).
(§2) The ex vivo erythrocyte production was established on a 28-day cell culture and involves three phases, namely 1) amplification of primitive erythrocyte progenitors, then 2) differentiation of said progenitors into erythrocyte precursors, and finally 3) the terminal stage of maturation with cell enucleation and development of mature erythrocytes.
(§3) i. Detailed Description of the Three Phases of the Protocol • Phase I of the protocol starts on DO with the seeding of 10^4 cells/mL in 5 mL of supplemented IMDM medium as defined below (see section ii). On day 4, dilution of the culture is performed by recovering 3 mL, which is replaced with the same volume of fresh medium. […] From day 11 to the end of the process, the cells are placed on a layer of mesenchymal stromal cells (MSCs) (coculture), allowing terminal maturation into functional enucleated cells by virtue of the contact between stromal cells and erythrocyte precursors. Suspended erythrocyte cells are seeded at a concentration of 3×10^5/ml and co-cultured from day 11 to day 15 in fresh medium with cytokines (SCF, IL-3, EPO and HC) and 5% fetal calf serum (FCS) required for MSCs. On day 15, the suspended erythrocyte cells are removed from culture, washed, then reseeded onto a new adherent layer of MSCs and cultured for a further four days in 2 mL of fresh medium containing only EPO. • Phase III of the protocol begins on day 19. At this stage, the cells complete their maturation by the enucleation of orthochromatic erythroblasts to form reticulocytes, leading to the formation of erythrocytes. On day 19, the cells are washed and spread on a new layer of MSCs in 2 mL of fresh cytokine-free medium. On day 23, the cultures are fed with fresh medium until day 28, corresponding to the last day of culture in the erythropoiesis protocol. ii. Description of the Culture Medium
(§4) The cells are incubated in Iscove's Modified Dulbecco Medium (IMDM_PAN BIOTECH) supplemented with various reagents to obtain a medium promoting the growth of cells committed to the erythrocyte lineage, namely: • L-Glutamine (4 mM), • Streptomycin and penicillin (1%), • Inositol (40 μg/mL), • Folic acid (10 μg/mL), • Mono-thioglycerol (1.6×10^−4 M), • Transferrin (120 μg/mL), • Insulin (10 μg/mL), N • Iron nitrate (90 ng/mL), • Iron sulfate (900 ng/mL) • Human serum albumin (10 mg/ml).
(§5) After preparation of the culture medium, cytokines are added extemporaneously to the culture medium: • Stem Cell Factor (SCF) at 100 ng/mL, • Interleukin-3 (IL-3) at 5 ng/mL, • Erythropoietin (EPO) at 3 IU/mL, • Hydrocortisone (HC) at 10^−6 M. The CD34^+ cells are incubated at 20% O2 and 5% CO2 at 37° C. for 28 days. iii. Description of the Culture Conditions Applied In order to test the effect of vitisin B in this context, various conditions were defined.
(§6) • CTRL condition: Absence of vitisin B throughout the entire protocol. • Condition I: Presence of vitisin B (10 μM) during phase I of the protocol. • […]: Presence of vitisin B (10 μM) during phases I and II of the protocol. • Condition III: Presence of vitisin B (10 μM) during the three phases of the protocol.
(§7) Analyses are performed on cells from each condition. The differentiation and maturation of erythrocyte cells are monitored by quantifying progenitors, analyzing the expression of GPA and CD71 markers, and also by morphological analysis.
(§8) During and at the end of the various erythrocyte differentiation protocols, cell proliferation and cell differentiation are analyzed. Cell proliferation is evaluated by counting of cells on Malassez slides, with Trypan blue exclusion of dead cells. […]

[3] = test system: peripheral blood CD34+ cells; experiment: as above; details: peripheral blood CD34+ cells in homeostasis, 10 μM
Text: as §1, §2, §3, §4, §5, §6, §7, §8

SMILES: Oc1ccc(C2Oc3ccc(/C=C/c4cc(O)cc5c4[C@H](c4cc(O)cc(O)c4)[C@@H](c4ccc(O)cc4)O5)cc3C2c2cc(O)cc3c2C(c2cc(O)cc(O)c2)C(c2ccc(O)cc2)O3)cc1 (stereo in doubt) [vitisin B, 5-[(2R,2'S,3R,3'S)-5-[(1E)-2-[(2S,3S)-3-(3,5-Dihydroxyphenyl)-2,3-dihydro-6-hydroxy-2-(4-hydroxyphenyl)-4-benzofuranyl]ethenyl]-2,2′,3,3′-tetrahydro-6′-hydroxy-2,2′-bis(4-hydroxyphenyl)[3,4′-bibenzofuran]-3′-yl]-1,3-benzenediol]
- CD71 expression ([1]; flow cytometry): more rapid decline
- acquisition of CD235a (GPA) ([1]; flow cytometry): earlier acquisition
- differentiation of CD34+ cells into erythrocyte precursors ([1]; vitisin B 5-30 μM for the entire protocol): faster and greater differentiation
- percentage of cells with the phenotype CD71negGPA+ ([2]; 10 μM, versus CTRL, FIG. 6A): increases
- cell proliferation in phase I ([2]; Days 0 to 11, 10 μM, versus CTRL, FIG. 5): similar
- number of cells relative to the control condition (CTRL) ([2]; condition I: vitisin B 10 μM during phase I only, FIG. 5): 1.5 times
- cells expressing GPA ([2]; day 8 of culture, stated without distinguishing conditions): less than 20%
- cells expressing GPA ([2]; day 28, 10 μM (CTRL 40%), FIG. 6A): more than 50%
- cell proliferation from the transition to phase II ([2]; from Day 11, peak on day 21, 10 μM, conditions I, II, III, FIG. 5): sharp increase
- absolute number of cells with the phenotype CD71negGPA+ ([2]; vitisin B 10 μM in phase I, FIG. 6B): increases
- cell proliferation from the transition to phase II [3]: sharp increase
